Data published in PMC9891081 (Cell, 2022).
Blank lines part the entries; values can stand above or below the molecule they belong to.

What was measured:
[1] = molecular target: rabbit Cav1.1 (rCav1.1) α1 subunit (Oryctolagus cuniculus, UniProt P07293); assay: cryo-EM structure; format: binding
human Cav1.2 = human Cav1.2 (Homo sapiens, UniProt Q13936); assay: calcium influx assay in HEK293 cells; format: cell-based
rabbit Cav1.1 α1 subunit = rabbit Cav1.1 α1 subunit (rabbit, UniProt P07293 1-1873); assay: cryo-EM structure
Sequence of rabbit Cav1.1 α1 subunit (P07293 whole entry): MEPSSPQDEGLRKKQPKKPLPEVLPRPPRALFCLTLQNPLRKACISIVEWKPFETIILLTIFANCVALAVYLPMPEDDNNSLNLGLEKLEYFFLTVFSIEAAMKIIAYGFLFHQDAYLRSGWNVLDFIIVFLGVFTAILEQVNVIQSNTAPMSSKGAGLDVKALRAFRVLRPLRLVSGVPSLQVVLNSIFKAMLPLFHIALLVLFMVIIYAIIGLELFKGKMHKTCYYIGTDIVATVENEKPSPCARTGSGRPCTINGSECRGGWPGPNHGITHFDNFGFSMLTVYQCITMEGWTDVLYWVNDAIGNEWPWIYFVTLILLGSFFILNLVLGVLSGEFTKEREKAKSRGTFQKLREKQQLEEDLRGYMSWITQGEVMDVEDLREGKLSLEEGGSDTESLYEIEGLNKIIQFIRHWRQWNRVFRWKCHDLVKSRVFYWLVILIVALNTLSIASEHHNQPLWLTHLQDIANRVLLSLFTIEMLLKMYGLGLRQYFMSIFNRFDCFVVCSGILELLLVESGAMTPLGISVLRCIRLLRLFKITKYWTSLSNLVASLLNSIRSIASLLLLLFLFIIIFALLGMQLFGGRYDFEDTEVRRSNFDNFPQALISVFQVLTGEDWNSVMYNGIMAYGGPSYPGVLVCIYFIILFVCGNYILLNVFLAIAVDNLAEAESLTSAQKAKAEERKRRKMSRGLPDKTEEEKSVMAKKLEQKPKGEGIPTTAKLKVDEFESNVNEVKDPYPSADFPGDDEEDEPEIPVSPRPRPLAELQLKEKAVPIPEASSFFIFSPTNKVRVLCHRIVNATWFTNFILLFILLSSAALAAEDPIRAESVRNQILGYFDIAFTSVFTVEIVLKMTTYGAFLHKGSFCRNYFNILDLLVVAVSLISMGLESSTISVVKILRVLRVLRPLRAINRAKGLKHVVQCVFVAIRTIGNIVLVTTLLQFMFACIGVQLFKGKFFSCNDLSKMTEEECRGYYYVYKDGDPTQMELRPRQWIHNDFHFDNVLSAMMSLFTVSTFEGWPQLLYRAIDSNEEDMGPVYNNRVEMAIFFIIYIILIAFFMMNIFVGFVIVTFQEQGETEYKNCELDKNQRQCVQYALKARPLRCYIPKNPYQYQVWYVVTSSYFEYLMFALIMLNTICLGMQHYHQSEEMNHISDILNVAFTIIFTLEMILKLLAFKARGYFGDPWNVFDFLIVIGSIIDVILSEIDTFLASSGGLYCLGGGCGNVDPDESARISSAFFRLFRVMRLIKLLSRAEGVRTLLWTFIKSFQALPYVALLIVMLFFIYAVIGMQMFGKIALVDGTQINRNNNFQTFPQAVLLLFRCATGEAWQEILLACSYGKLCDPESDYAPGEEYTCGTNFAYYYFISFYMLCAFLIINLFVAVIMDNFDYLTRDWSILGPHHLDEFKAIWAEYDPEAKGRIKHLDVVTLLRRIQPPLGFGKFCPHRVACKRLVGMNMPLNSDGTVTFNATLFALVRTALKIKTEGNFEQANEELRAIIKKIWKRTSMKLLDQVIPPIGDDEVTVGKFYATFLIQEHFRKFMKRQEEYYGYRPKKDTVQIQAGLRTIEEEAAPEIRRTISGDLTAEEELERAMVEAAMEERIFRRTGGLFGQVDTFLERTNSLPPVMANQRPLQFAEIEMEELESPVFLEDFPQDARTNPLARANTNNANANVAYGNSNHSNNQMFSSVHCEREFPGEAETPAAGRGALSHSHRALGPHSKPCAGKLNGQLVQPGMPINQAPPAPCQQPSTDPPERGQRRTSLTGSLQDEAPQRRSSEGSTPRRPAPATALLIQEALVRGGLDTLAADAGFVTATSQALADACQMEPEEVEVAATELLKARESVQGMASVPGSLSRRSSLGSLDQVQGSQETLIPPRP

Sequence of rabbit Cav1.1 (rCav1.1) α1 subunit (P07293 whole entry, one chain of several): as the sequence (P07293 whole entry) above
Sequence of rabbit Cav1.1 (rCav1.1) α1 subunit (P13806 27-960 partner, one chain of several): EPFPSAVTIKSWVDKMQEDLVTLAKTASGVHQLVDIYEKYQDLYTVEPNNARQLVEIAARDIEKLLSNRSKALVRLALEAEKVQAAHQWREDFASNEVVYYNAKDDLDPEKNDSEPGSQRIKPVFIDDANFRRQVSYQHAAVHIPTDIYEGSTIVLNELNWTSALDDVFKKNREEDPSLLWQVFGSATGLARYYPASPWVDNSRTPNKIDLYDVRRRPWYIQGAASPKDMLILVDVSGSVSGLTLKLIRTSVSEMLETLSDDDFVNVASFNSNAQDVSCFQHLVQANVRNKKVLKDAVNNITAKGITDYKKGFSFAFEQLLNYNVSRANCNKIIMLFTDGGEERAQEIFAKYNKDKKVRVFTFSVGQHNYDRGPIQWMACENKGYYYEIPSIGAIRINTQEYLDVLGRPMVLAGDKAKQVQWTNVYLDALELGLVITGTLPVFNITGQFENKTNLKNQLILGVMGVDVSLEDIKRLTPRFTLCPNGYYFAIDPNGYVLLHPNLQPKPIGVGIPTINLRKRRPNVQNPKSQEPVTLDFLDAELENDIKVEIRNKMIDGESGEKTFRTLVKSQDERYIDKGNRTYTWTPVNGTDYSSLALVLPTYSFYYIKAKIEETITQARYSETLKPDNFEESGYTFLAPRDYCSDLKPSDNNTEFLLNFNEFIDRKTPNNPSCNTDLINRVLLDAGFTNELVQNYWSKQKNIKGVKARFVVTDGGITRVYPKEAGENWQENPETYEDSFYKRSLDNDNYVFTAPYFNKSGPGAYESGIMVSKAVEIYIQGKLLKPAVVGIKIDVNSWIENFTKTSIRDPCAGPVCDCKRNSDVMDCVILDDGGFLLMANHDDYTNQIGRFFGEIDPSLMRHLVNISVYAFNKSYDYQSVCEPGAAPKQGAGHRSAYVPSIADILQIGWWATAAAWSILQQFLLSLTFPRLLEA
Sequence of rabbit Cav1.1 (rCav1.1) α1 subunit (P13806 961-1106 partner, one chain of several): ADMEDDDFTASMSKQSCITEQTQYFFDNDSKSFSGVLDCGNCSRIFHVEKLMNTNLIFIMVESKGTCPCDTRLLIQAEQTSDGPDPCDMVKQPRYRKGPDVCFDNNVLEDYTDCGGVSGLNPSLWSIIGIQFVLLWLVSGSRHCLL

Molecule: CCCCc1oc2ccccc2c1C(=O)c1cc(I)c(OCCN(CC)CC)c(I)c1 [AMIO, amiodarone]
cryo-EM structure (2.8 Å) [1]: AMIO occupies the same site as for DHP compounds, i.e., the III-IV fenestration enclosed by S5III, S6III, and S6IV

Molecule: C#C[C@]1(C)[C@@H](O)[C@@H](COP(=O)(N[C@@H](C)C(=O)OC(C)C)Oc2ccccc2)O[C@H]1n1ccc(=O)[nH]c1=O (stereo partly drawn) [MNI-1]
IC50 (human Cav1.2): > 100 µM

binding result (rabbit Cav1.1 α1 subunit): binds
B1: rabbit γ1 subunit (natural protein, UniProt P19518 1-222, looked up)
chain: MSPTEAPKVRVTLFCILVGIVLAMTAVVSDHWAVLSPHMENHNTTCEAAHFGLWRICTKRIALGEDRSCGPITLPGEKNCSYFRHFNPGESSEIFEFTTQKEYSISAAAISVFSLGFLIMGTICALMAFRKKRDYLLRPASMFYVFAGLCLFVSLEVMRQSVKRMIDSEDTVWIEYYYSWSFACACAAFVLLFLGGISLLLFSLPRMPQNPWESCMDAEPEH
